From ChEMBL document CHEMBL4602605, “Fluoroquinolones structural and medicinal developments (2013-2018): Where are we now?” (Bioorg Med Chem, 2019)
Values after ≈ are worked out from the molar mass of the structure shown.

Experiments:
Assay type in all cases: functional
[1] = tested on: Enterococcus faecium; assay: Antimicrobial activity against Enterococcus faecium ATCC 700221 incubated for 18 to 24 hrs by two-fold serial dilution method
[2] = tested on: Staphylococcus epidermidis; assay: Antimicrobial activity against methicillin-susceptible Staphylococcus epidermidis ATCC 12228 incubated for 18 to 24 hrs by two-fold serial dilution method
[3] = tested on: Staphylococcus aureus; assay: Antimicrobial activity against methicillin-resistant Staphylococcus aureus ATCC 33591 incubated for 18 to 24 hrs by two-fold serial dilution method
[4] = tested on: Staphylococcus aureus; assay: Antimicrobial activity against methicillin-susceptible Staphylococcus aureus ATCC 29213 incubated for 18 to 24 hrs by two-fold serial dilution method
[5] = tested on: Mycobacterium tuberculosis; assay: Antimicrobial activity against Mycobacterium tuberculosis H37Rv ATCC 27294 incubated for 7 days by microplate Alamar blue assay; conditions: H37Rv ATCC 27294, 168 h
[6] = tested on: Pseudomonas aeruginosa; assay: Antimicrobial activity against Pseudomonas aeruginosa PAO1 by CLSI-based broth microdilution method
[7] = tested on: Escherichia coli; assay: Antimicrobial activity against tolC deficient Escherichia coli KD65 by CLSI-based broth microdilution method
[8] = tested on: Staphylococcus aureus; assay: Antimicrobial activity against Staphylococcus aureus ATCC 29213 by CLSI-based broth microdilution method
[9] = Escherichia coli, KD65, read-out: MIC
[10] = Staphylococcus aureus, ATCC 29213, read-out: MIC

Row | Structure (SMILES) | MIC [6] | MIC [7, 9] | MIC [8, 10] | other results
1 | COc1c(N2CCN(C/C(C)=N/Nc3ccc(F)cc3)CC2)c(F)cc2c(=O)c(C(=O)O)cn(C3CC3)c12 | – | – | – | MIC [1]: 32 µg/mL (≈ 60.9 µM); MIC [2]: 0.125 µg/mL (≈ 0.238 µM); MIC [3]: 0.125 µg/mL (≈ 0.238 µM); MIC [4]: 0.125 µg/mL (≈ 0.238 µM); MIC [5]: 0.215 µM (≈ 0.113 µg/mL)
2 | O=C(O)c1cn(C2CC2)c2c3c(c(F)cc2c1=O)N1CCCC1CC(O)C3O (stereo unspecified) | 8 µg/mL (≈ 20.6 µM) | < 0.06 µg/mL | < 0.06 µg/mL | –
3 | N[C@H]1CCN2c3c(F)cc4c(=O)c(C(=O)O)cn(C5CC5)c4c3CCC[C@H]12 | 0.29 µg/mL (≈ 0.781 µM) | 0.004 µg/mL (≈ 0.0108 µM) | 0.015 µg/mL (≈ 0.0404 µM) | –
4 | N[C@@H]1C[C@@H]2CC=Cc3c(c(F)cc4c(=O)c(C(=O)O)cn(C5CC5)c34)N2C1 | 1 µg/mL (≈ 2.71 µM) | 0.125 µg/mL (≈ 0.338 µM) | 0.25 µg/mL (≈ 0.677 µM) | –
5 | N[C@H]1C[C@H]2CCCc3c(c(F)cc4c(=O)c(C(=O)O)cn(C5CC5)c34)N2C1 | 0.5 µg/mL (≈ 1.35 µM) | 0.015 µg/mL (≈ 0.0404 µM) | 0.5 µg/mL (≈ 1.35 µM) | –
6 | O=C(O)c1cn(C2CC2)c2c3c(c(F)cc2c1=O)N1CCCC1CC=C3 (stereo unspecified) | 1 µg/mL (≈ 2.82 µM) | 0.03 µg/mL (≈ 0.0847 µM) | 0.5 µg/mL (≈ 1.41 µM) | –
7 | N[C@H]1CCN2c3c(F)cc4c(=O)c(C(=O)O)cn(C5CC5)c4c3C=CC[C@H]12 | 0.16 µg/mL (≈ 0.433 µM) | 0.0022 µg/mL (≈ 0.00596 µM) | 0.007 µg/mL (≈ 0.0189 µM) | –
8 | N[C@@H]1CCN2c3c(F)cc4c(=O)c(C(=O)O)cn(C5CC5)c4c3C=CC[C@H]12 | 0.38 µg/mL (≈ 1.03 µM) | 0.06 µg/mL (≈ 0.162 µM) | 0.045 µg/mL (≈ 0.122 µM) | –
9 | O=C(O)c1cn(C2CC2)c2c3c(c(F)cc2c1=O)N1CCCC1CNC3 (stereo unspecified) | 16 µg/mL (≈ 44.8 µM) | 0.125 µg/mL (≈ 0.35 µM) | 0.25 µg/mL (≈ 0.7 µM) | –
10 | COc1c(N2CCN(C/C(C)=N/Nc3ccc(F)c(Cl)c3)CC2)c(F)cc2c(=O)c(C(=O)O)cn(C3CC3)c12 | – | – | – | MIC [1]: 64 µg/mL (≈ 114 µM); MIC [2]: 0.125 µg/mL (≈ 0.223 µM); MIC [3]: 0.125 µg/mL (≈ 0.223 µM); MIC [4]: 0.125 µg/mL (≈ 0.223 µM); MIC [5]: 0.396 µM (≈ 0.222 µg/mL)
11 | COc1c(N2CCN(C/C(C)=N/Nc3ccncc3)CC2)c(F)cc2c(=O)c(C(=O)O)cn(C3CC3)c12 | – | – | – | MIC [1]: > 64 µg/mL; MIC [2]: 2 µg/mL (≈ 3.93 µM); MIC [3]: 2 µg/mL (≈ 3.93 µM); MIC [4]: 2 µg/mL (≈ 3.93 µM); MIC [5]: 1.78 µM (≈ 0.905 µg/mL)
12 | N[C@@H]1CCN2c3c(F)cc4c(=O)c(C(=O)O)cn(C5CC5)c4c3C=NC[C@H]12 | 1 µg/mL (≈ 2.7 µM) | 0.125 µg/mL (≈ 0.337 µM) | 4 µg/mL (≈ 10.8 µM) | –
13 | N[C@@H]1C[C@H]2CC=Cc3c(c(F)cc4c(=O)c(C(=O)O)cn(C5CC5)c34)N2C1 | 32 µg/mL (≈ 86.6 µM) | 2 µg/mL (≈ 5.41 µM) | 2 µg/mL (≈ 5.41 µM) | –
14 | N[C@@H]1CCN2c3c(F)cc4c(=O)c(C(=O)O)cn(C5CC5)c4c3CCC[C@H]12 | 0.125 µg/mL (≈ 0.337 µM) | 0.004 µg/mL (≈ 0.0108 µM) | 0.03 µg/mL (≈ 0.0808 µM) | –
15 | N[C@H]1C[C@@H]2CC=Cc3c(c(F)cc4c(=O)c(C(=O)O)cn(C5CC5)c34)N2C1 | 0.22 µg/mL (≈ 0.596 µM) | 0.008 µg/mL (≈ 0.0217 µM) | ≤ 0.06 µg/mL | –
16 | CO/N=C1/Cc2c(c(F)cc3c(=O)c(C(=O)O)cn(C4CC4)c23)N2CCCC2C1 (stereo unspecified) | 64 µg/mL (≈ 160 µM) | 0.25 µg/mL (≈ 0.626 µM) | 1 µg/mL (≈ 2.5 µM) | –
17 | N[C@H]1CCN2c3c(F)cc4c(=O)c(C(=O)O)cn(C5CC5)c4c3C=NC[C@H]12 | 0.5 µg/mL (≈ 1.35 µM) | ≤ 0.06 µg/mL | 2 µg/mL (≈ 5.4 µM) | –
18 | O=C(O)c1cn(C2CC2)c2c3c(c(F)cc2c1=O)N1CCCC1CCC3 (stereo unspecified) | 17 µg/mL (≈ 47.7 µM) | 0.18 µg/mL (≈ 0.505 µM) | 0.1 µg/mL (≈ 0.281 µM) | –
19 | C/N=C1/Cc2c(c(F)cc3c(=O)c(C(=O)O)cn(C4CC4)c23)N2CCCC2C1 (stereo unspecified) | > 32 µg/mL | 0.06 µg/mL (≈ 0.156 µM) | 0.25 µg/mL (≈ 0.652 µM) | –
20 | N[C@@H]1CCN2c3c(F)cc4c(=O)c(C(=O)O)cn(C5CC5)c4c3CNC[C@H]12 | 16 µg/mL (≈ 43 µM) | 0.25 µg/mL (≈ 0.671 µM) | 1 µg/mL (≈ 2.69 µM) | –
21 | N[C@H]1CCN2c3c(F)cc4c(=O)c(C(=O)O)cn(C5CC5)c4c3COC[C@H]12 | 0.25 µg/mL (≈ 0.67 µM) | 0.002 µg/mL (≈ 0.00536 µM) | 0.0082 µg/mL (≈ 0.022 µM) | –
22 | N[C@H]1C[C@H]2CC=Cc3c(c(F)cc4c(=O)c(C(=O)O)cn(C5CC5)c34)N2C1 | 64 µg/mL (≈ 173 µM) | 16 µg/mL (≈ 43.3 µM) | 8 µg/mL (≈ 21.7 µM) | –
23 | N[C@H]1C[C@@H]2CCCc3c(c(F)cc4c(=O)c(C(=O)O)cn(C5CC5)c34)N2C1 | 0.45 µg/mL (≈ 1.21 µM) | 0.006 µg/mL (≈ 0.0162 µM) | 0.038 µg/mL (≈ 0.102 µM) | –
24 | N[C@H]1C[C@H]2COCc3c(c(F)cc4c(=O)c(C(=O)O)cn(C5CC5)c34)N2C1 | 0.38 µg/mL (≈ 1.02 µM) | 0.034 µg/mL (≈ 0.0911 µM) | 0.125 µg/mL (≈ 0.335 µM) | –
25 | O=C1CC2CCCN2c2c(F)cc3c(=O)c(C(=O)O)cn(C4CC4)c3c2N1 (stereo unspecified) | > 64 µg/mL | 4 µg/mL (≈ 10.8 µM) | > 64 µg/mL | –
26 | O=C(O)c1cn(C2CC2)c2c3c(c(F)cc2c1=O)N1CCCC1C[S+]([O-])C3 (stereo in doubt; 440) | > 16 µg/mL | – | – | MIC [7]: 16 µg/mL (≈ 41 µM); MIC [8]: 1 µg/mL (≈ 2.56 µM)
27 | O=C(O)c1cn(C2CC2)c2c3c(c(F)cc2c1=O)N1CCCC1C[S+]([O-])C3 (stereo in doubt; 441) | – | – | – | MIC [7]: 1 µg/mL (≈ 2.56 µM); MIC [8]: 4 µg/mL (≈ 10.2 µM)
